This assay relates to HIV-1 (JRCSF). As to the kind of experiment: Anti-HIV activity in MaRBLE cells infected with HIV-1 (JRCSF), luciferase readout. It counts as cell-based. To be noted: MaRBLE cells (human T lymphocyte-derived HPB-M(a)) infected with HIV-1 (JRCSF), 7 days culture, rate of viral proliferation by luciferase activity, read-out: Anti-HIV activity IC50. On the procedure:
This test was conducted with reference to Journal of Clinical Microbiology, 2007, Vol. 45, p. 477-487.
The anti-HIV activity was evaluated using MaRBLE cells in which a luciferase gene to be expressed under the control of HIV-1 LTR and a CCR5 gene, etc. were introduced in human T lymphocyte-derived HPB-M(a).
A fresh medium or each appropriately diluted test compound was dispensed to 96-well plates to prepare drug solution-containing plates.
The MaRBLE cells were suspended in RPMI1640 containing 10% FCS (fetal calf serum) and penicillin/streptomycin and infected with HIV-1 (JRCSF). Then, the cells were inoculated to the drug solution-containing plates (1×10^5 cells/well). The same number of uninfected cells were inoculated as a control group to the drug solution-containing plates.
After culture at 37° C. for 7 days in a 5% CO2 atmosphere, the intracellular luciferase activity was measured using Steady-Glo Luciferase assay system (Promega Corp.).
The rate of viral proliferation was determined according to the following expression:
Rate of viral proliferation(%)=(A/B)×100
A=(Firefly luciferase activity of the compound-supplemented well)−(Firefly luciferase activity of the uninfected cells)
B=(Firefly luciferase activity of the compound-free well)−(Firefly luciferase activity of the uninfected cells)
IC50 of the compound was calculated by a plot with concentration as the logarithm and the rate of viral proliferation as the real part using the FORECAST function (linear regression method) of Microsoft Office Excel 2003.

[1] abbreviates: Human immunodeficiency virus 1, 168 h.

Molecules are shown by their SMILES. Read-outs that look alike come from different tables or passages of the source.

As to `O=c1cc(NCc2ccc(-c3ccccc3)cc2)c2cncnc2n1O` [Example 97, 5-(((biphenyl-4-yl)methyl)amino)-8-hydroxypyrido[2,3-d]pyrimidin-7(8H)-one], the IC50 (as a rule, the concentration at which inhibition is half-maximal) under setting [1] was determined as 200 nM. Turning to `CN(C)c1ccc(CNc2cc(=O)n(O)c3ncncc23)cc1` [Example 102, 5-((4-(dimethylamino)benzyl)amino)-8-hydroxypyrido [2,3-d]pyrimidin-7(8H)-one], under setting [1], the half-maximal inhibitory concentration (IC50) stood at 210 nM. As for `O=c1cc(NCc2ccc(O)cc2)c2cncnc2n1O` [Example 103, 8-hydroxy-5-((4-hydroxybenzyl)amino)pyrido[2,3-d]pyrimidin-7(8H)-one], the IC50 under setting [1] is 200 nM. Still for that read-out and setting: as for `O=C(NCc1ccccc1)c1c(O)c2cncnc2n(O)c1=O` [Example 105, N-benzyl-5,8-dihydroxy-7-oxo-7,8-dihydropyrido[2,3-d]pyrimidine-6-carboxamide], the figure is 64 nM. Same read-out and setting: as for `Cc1ncnc2c1c(NCc1cccnc1)cc(=O)n2O` [Example 106, 8-hydroxy-4-methyl-5-(((pyridin-3-yl)methyl)amino)pyrido[2,3-d]pyrimidin-7(8H)-one], the figure is 80 nM. For `O=c1cc(NCc2ccc(O)c(O)c2)c2cncnc2n1O` [Example 108, 5-((3,4-dihydroxybenzyl)amino)-8-hydroxypyrido[2,3-d]pyrimidin-7(8H)-one], the half-inhibitory concentration (IC50) under setting [1] worked out at 570 nM. In the case of `Cc1ncnc2c1c(NCc1ccc(O)cc1)cc(=O)n2O` [Example 110, 8-hydroxy-5-((4-hydroxybenzyl)amino)-4-methylpyrido[2,3-d]pyrimidin-7(8H)-one], the IC50 under setting [1] came to 49 nM. Still for that read-out and setting: as for `Cc1ncnc2c1c(O)c(C(=O)NCc1ccccc1)c(=O)n2O` [Example 111, N-benzyl-5,8-dihydroxy-4-methyl-7-oxo-7,8-dihydropyrido[2,3-d]pyrimidine-6-carboxamide], the figure is 8.4 nM; as for `Cc1ncnc2c1c(NCc1ccccc1O)cc(=O)n2O` [Example 112, 8-hydroxy-5-((2-hydroxybenzyl)amino)-4-methylpyrido[2,3-d]pyrimidin-7(8H)-one], 28 nM.

`Cc1ncnc2c1c(NCc1ccc(O)c(O)c1)cc(=O)n2O` [Example 113, 5-((3,4-dihydroxybenzyl)amino)-8-hydroxy-4-methylpyrido[2,3-d]pyrimidin-7(8H)-one]: the IC50 under setting [1] is 73 nM.

Take `Cc1ncnc2c1c(NCc1cccc(O)c1)cc(=O)n2O` [Example 114, 8-hydroxy-5-((3-hydroxybenzyl)amino)-4-methylpyrido[2,3-d]pyrimidin-7(8H)-one]: the 50% inhibitory concentration (IC50) under setting [1] came to 42 nM. Still for that read-out and setting: as for `O=c1cc(NCc2ccccc2)c2c(O)ncnc2n1O` [Example 115, 5-(benzylamino)-4,8-dihydroxypyrido[2,3-d]pyrimidin-7(8H)-one], the figure is 150 nM. With `Cc1ncnc2c1c(NCc1ccccc1NS(C)(=O)=O)cc(=O)n2O` [Example 122, N-(2-(((8-hydroxy-4-methyl-7-oxo-7,8-dihydropyrido[2,3-d]pyrimidin-5-yl)amino)methyl)phenyl)methanesulfonamide], the IC50 under setting [1] was 100 nM. On the same count and under the same terms, the same measure for `Cc1ncnc2c1c(NCc1ccccc1N)cc(=O)n2O` [Example 123, 5-((2-aminobenzyl)amino)-8-hydroxy-4-methylpyrido[2,3-d]pyrimidin-7(8H)-one]: 78 nM. For `Cc1ncnc2c1c(NCc1cnc3ccccc3c1)cc(=O)n2O` [Example 124, 8-hydroxy-4-methyl-5-(((quinolin-3-yl)methyl)amino)pyrido[2,3-d]pyrimidin-7(8H)-one], under setting [1], the IC50 is 58 nM. Still for that read-out and setting: as for `Cc1ncnc2c1c(NCc1ccc(N)cc1)cc(=O)n2O` [Example 125, 5-((4-aminobenzyl)amino)-8-hydroxy-4-methylpyrido[2,3-d]pyrimidin-7(8H)-one], the figure is 63 nM; as for `Cc1ncnc2c1c(NCc1cccc(NS(C)(=O)=O)c1)cc(=O)n2O` [Example 126, N-(3-(((8-hydroxy-4-methyl-7-oxo-7,8-dihydropyrido[2,3-d]pyrimidin-5-yl)amino)methyl)phenyl)methanesulfonamide], 140 nM.

Take `Cc1ncnc2c1c(N)cc(=O)n2O` [Example 127, 5-amino-8-hydroxy-4-methylpyrido[2,3-d]pyrimidin-7(8H)-one]: under setting [1], the IC50 amounted to 150 nM. On the same count and under the same terms, the same measure for `Cc1ncnc2c1c(NCc1ccc(NS(C)(=O)=O)cc1)cc(=O)n2O` [Example 128, N-(4-(((8-hydroxy-4-methyl-7-oxo-7,8-dihydropyrido[2,3-d]pyrimidin-5-yl)amino)methyl)phenyl)methanesulfonamide]: 270 nM.

`Cc1ncnc2c1c(NCc1cccc(N)c1)cc(=O)n2O` [Example 129, 5-((3-aminobenzyl)amino)-8-hydroxy-4-methylpyrido[2,3-d]pyrimidin-7(8H)-one]: the IC50 under setting [1] stood at 91 nM. On the same count and under the same terms, the same measure for `Cc1ncnc2c1c(NCc1cccc(CN)c1)cc(=O)n2O` [Example 132, 5-((3-(aminomethyl)benzyl)amino)-8-hydroxy-4-methylpyrido[2,3-d]pyrimidin-7(8H)-one]: 210 nM. The same measure, in the same setting: as for `Cc1ncnc2c1c(NCc1cnccc1C(F)(F)F)cc(=O)n2O` [Example 133, 8-hydroxy-4-methyl-5-(((4-(trifluoromethyl)pyridin-3-yl)methyl)amino)pyrido[2,3-d]pyrimidin-7(8H)-one], the figure is 59 nM. With `Cc1ncnc2c1c(NCc1ccc(CN)cc1)cc(=O)n2O` [Example 134], under setting [1], the IC50 worked out at 140 nM. Same read-out and setting: the same measure for `Cc1cncc(CNc2cc(=O)n(O)c3ncnc(C)c23)c1` [Example 136, 8-hydroxy-4-methyl-5-(((5-methylpyridin-3-yl)methyl)amino)pyrido[2,3-d]pyrimidin-7(8H)-one]: 120 nM. `Cc1cccc(CNc2cc(=O)n(O)c3ncnc(C)c23)c1` [Example 137, 8-hydroxy-4-methyl-5-((3-methylbenzyl)amino)pyrido[2,3-d]pyrimidin-7(8H)-one]: the IC50 under setting [1] amounted to 82 nM.

Regarding `Cc1ncnc2c1c(NCc1ccccc1N1CCCCC1)cc(=O)n2O` [Example 138, 8-hydroxy-4-methyl-5-((2-(piperidin-1-yl)benzyl)amino)pyrido[2,3-d]pyrimidin-7(8H)-one], under setting [1], the IC50 stood at 94 nM. For `Cc1ncnc2c1c(NCc1ccccc1CN)cc(=O)n2O` [Example 140, 5-((2-(aminomethyl)benzyl)amino)-8-hydroxy-4-methylpyrido[2,3-d]pyrimidin-7(8H)-one], the IC50 under setting [1] was 190 nM. `Cc1ncnc2c1c(NCc1cncc3ccccc13)cc(=O)n2O` [Example 141, 8-hydroxy-5-(((isoquinolin-4-yl)methyl)amino)-4-methylpyrido[2,3-d]pyrimidin-7(8H)-one]: the IC50 under setting [1] came to 46 nM. For the compound `CC(=O)Nc1ccc(CNc2cc(=O)n(O)c3ncnc(C)c23)cc1` [Example 142, N-(4-(((8-hydroxy-4-methyl-7-oxo-7,8-dihydropyrido[2,3-d]pyrimidin-5-yl)amino)methyl)phenyl)acetamide], under setting [1], the IC50 came out at 130 nM. On the same count and under the same terms, as for `Cc1ncnc2c1c(NCc1cccc(CN(C)C)c1)cc(=O)n2O` [Example 143, 5-((3-((dimethylamino)methyl)benzyl)amino)-8-hydroxy-4-methylpyrido[2,3-d]pyrimidin-7(8H)-one], the figure is 120 nM; as for `Cc1ncnc2c1c(NCc1ccc(OCCO)cc1)cc(=O)n2O` [Example 144, 8-hydroxy-5-((4-(2-hydroxyethoxy)benzyl)amino)-4-methylpyrido[2,3-d]pyrimidin-7(8H)-one], 90 nM. For `Cc1ncnc2c1c(NCc1ccc(NS(=O)(=O)c3ccccc3)cc1)cc(=O)n2O` [Example 145, N-(4-(((8-hydroxy-4-methyl-7-oxo-7,8-dihydropyrido[2,3-d]pyrimidin-5-yl)amino)methyl)phenyl)benzenesulfonamide], the IC50 under setting [1] was determined as 490 nM. For `Cc1ncnc2c1c(NCc1ccc(Oc3ccccc3)nc1)cc(=O)n2O` [Example 146, 8-hydroxy-4-methyl-5-(((6-phenoxypridin-3-yl)methyl)amino)pyrido[2,3-d]pyrimidin-7(8H)-one], the IC50 amounted to 100 nM. Take `Cc1ncnc2c1c(NCc1cccnc1OCC(F)(F)F)cc(=O)n2O` [Example 147, 8-hydroxy-4-methyl-5-(((2-(2,2,2-trifluoroethoxy)pyridin-3-yl)methyl)amino)pyrido[2,3-d]pyrimidin-7(8H)-one]: the IC50 under setting [1] came out at 83 nM. On the same count and under the same terms, the same measure for `Cc1ncnc2c1c(NCc1ccc(C(F)(F)F)cc1)cc(=O)n2O` [Example 148, 8-hydroxy-4-methyl-5-((4-(trifluoromethyl)benzyl)amino)pyrido[2,3-d]pyrimidin-7(8H)-one]: 71 nM.

With `Cc1ncnc2c1c(NCc1ccccc1C(F)(F)F)cc(=O)n2O` [Example 149, 8-hydroxy-4-methyl-5-((2-(trifluoromethyl)benzyl)amino)pyrido[2,3-d]pyrimidin-7(8H)-one], the IC50 under setting [1] came to 26 nM.

Consider `Cc1ncnc2c1c(NCc1ccccn1)cc(=O)n2O` [Example 150, 8-hydroxy-4-methyl-5-(((pyridin-2-yl)methyl)amino)pyrido[2,3-d]pyrimidin-7(8H)-one], for which the IC50 under setting [1] was determined as 100 nM.

(Values after US20150018546A1, “HETEROCYCLIC COMPOUND HAVING ANTI-HIV ACTIVITY” (TOYAMA CHEMICAL CO., LTD., priority 2012, published 2015).)
